# The source made the active and inactive calls. No rule for the calls is given here. Where a SMILES comes first, the peptide text is derived from it.
# Target: Peptidyl-prolyl cis-trans isomerase FKBP1A (Homo sapiens) (UniProt P62942)
# Assay: FKBP12 binders, biophysical, NMR detection (AID 608)
# Conditions: NMR binding, purified FKBP12
# Sequence of Peptidyl-prolyl cis-trans isomerase FKBP1A (Homo sapiens) (P62942 whole entry, looked up): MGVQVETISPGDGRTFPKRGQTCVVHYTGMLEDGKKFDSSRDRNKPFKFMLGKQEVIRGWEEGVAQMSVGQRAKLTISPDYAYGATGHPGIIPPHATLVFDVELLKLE
row,SMILES,Kd
1,COc1ccc(/C=C2\SC(N)=NC2=O)cc1,> 4 mM (inactive)
2,CCc1c(C)[nH]c(=S)c(C(N)=O)c1C,> 4 mM (inactive)
3,CC[C@@]1(O)C(=O)OCc2c1cc1n(c2=O)Cc2cc3ccccc3nc2-1,> 4 mM (inactive)
4,Cc1cc(C(=O)Nc2sc(C)c(C)c2C#N)no1,> 4 mM (inactive)
5,CC(=O)NCS(=O)(=O)c1ccc(C)cc1,> 4 mM (inactive)
6,Nc1ccc2c(c1)CCC2=O,> 4 mM (inactive)
7,O=C(COc1ccc(S(=O)(=O)Nc2cccc(C(F)(F)F)c2)cc1)N1CCOCC1,inactive
8,Cc1sc(CCc2nc(-c3ccccc3)c(C)s2)nc1-c1ccccc1,inactive
9,O=C(NC1CCS(=O)(=O)C1)c1cccs1 (stereo unspecified),> 4 mM (inactive)
10,Cc1occc1C(=O)NCc1ccccc1F,> 4 mM (inactive)
11,COC(=O)Cc1cccc(OC)c1,> 4 mM (inactive)
12,O/N=C1/CCCc2nonc21,> 4 mM (inactive)
13,CN(C)N1C(=O)C2CCCCC2C1=O (stereo unspecified),> 4 mM (inactive)
14,O=S(=O)(Nc1ccc(F)cc1)N1CCOCC1,> 4 mM (inactive)
15,C=CCSc1[nH]c(=O)cc(C)c1C(N)=O,> 4 mM (inactive)
16,Fc1cccc(Cl)c1CN1CCCNCC1,> 4 mM (inactive)
17,O=C(Nc1ccon1)c1csc2c1CCCC2,> 4 mM (inactive)
18,CCN1CC2(C)CC[C@H](OC)[C@]34C2[C@H](O)C2(OCO[C@@]25C[C@H](OC)[C@H]2C[C@]3(O)C5[C@H]2O)C14,> 4 mM (inactive)
19,CC(C)=CCc1c2c(c(O)c3c(=O)c(O)c(-c4ccccc4)oc13)C=CC(C)(C)O2,> 4 mM (inactive)
20,O=P(c1ccccc1)(c1ccccc1)C1CCOCC1,> 4 mM (inactive)
21,Nc1nc(SCc2ccccc2)ns1,> 4 mM (inactive)
22,Cc1ccc(C(C)C)c(OCCNC(=O)c2ccccc2OCC(=O)N2CCOCC2)c1,inactive
23,CC(=O)N[C@@H](CC(=O)O)C(=O)N[C@@H](CCC(=O)O)C(=O)O (Ac-Asp-Glu-OH),> 4 mM (inactive)
24,NCc1ccc(-c2cccs2)cc1,> 4 mM (inactive)
25,CCOC(=O)C1CN(C)CCN1C (stereo unspecified),> 4 mM (inactive)

row,SMILES,Kd
1,OCc1ccc(-c2ccccn2)s1,> 4 mM (inactive)
2,CCNS(=O)(=O)c1ccc(OC)c(C)c1,> 4 mM (inactive)
3,COc1cccc(NC(=O)c2ocnc2C)c1,> 4 mM (inactive)
4,c1cncc(C2CCCCN2)c1 (stereo unspecified),> 4 mM (inactive)
5,COC(=O)C1CCN(c2ccc(Cl)nn2)CC1,> 4 mM (inactive)
6,O=C(NC(=S)NCCO)c1ccccc1,> 4 mM (inactive)
7,Cc1cc(NC(=O)c2cnn3cccnc23)no1,> 4 mM (inactive)
8,NC(=O)C(=O)NCc1ccc(Cl)cc1,> 4 mM (inactive)
9,CC1CN(C(=O)c2ccncc2)CC(C)O1 (stereo unspecified),> 4 mM (inactive)
10,O=C(O)C1Cc2ccccc2O1 (stereo unspecified),> 4 mM (inactive)
11,COc1ccc(C(C)=O)c(OC)c1,> 4 mM (inactive)
12,Cc1nc(SCC#N)c2c3c(sc2n1)CCC3,> 4 mM (inactive)
13,N=Cc1c(O)n(-c2cccc(Cl)c2)c(=O)[nH]c1=O,> 4 mM (inactive)
14,CN1CCN(c2nc3c(c(=O)[nH]2)CCCC3)CC1,> 4 mM (inactive)
15,O=C(Oc1ccc2c(c1)CCC2)N1CCOCC1,> 4 mM (inactive)
16,NC1=NC(=O)/C(=C\c2cccnc2)S1,> 4 mM (inactive)
17,COc1ncnc(N)c1[N+](=O)[O-],> 4 mM (inactive)
18,O=C1OCCC1Sc1nc2ccccc2c(=O)[nH]1 (stereo unspecified),> 4 mM (inactive)
19,Cc1nnc(SCC(=O)Nc2ccccc2)[nH]c1=O,> 4 mM (inactive)
20,Cc1nnc(SCc2cccs2)[nH]c1=O,> 4 mM (inactive)
21,O=C(NCc1ccccc1)c1ccc[n+]([O-])c1,> 4 mM (inactive)
22,Cn1nccc1N,> 4 mM (inactive)
23,O=C(COc1ccccc1)N1CCOCC1,inactive
24,COc1ccccc1-c1noc(-c2ccncc2)n1,> 4 mM (inactive)
25,Brc1ccc(-c2nc(-c3ccncc3)no2)o1,> 4 mM (inactive)

row,SMILES,Kd
1,Brc1cccc(-c2nnco2)c1,> 4 mM (inactive)
2,Nc1c(S(=O)(=O)c2ccccc2)csc1C(=O)O,> 4 mM (inactive)
3,CC(=O)Nc1ccc(NC(C)=O)cc1,> 4 mM (inactive)
4,CC(=O)c1cccc(NS(=O)(=O)N2CCOCC2)c1,inactive
5,Cc1c(N=Cc2ccco2)c(=O)n(-c2ccccc2)n1C,> 4 mM (inactive)
6,Cc1ccc(N2C(=O)C3C4C=CC(O4)C3C2=O)cc1 (stereo unspecified),> 4 mM (inactive)
7,O=C1CCCCCN1CO,> 4 mM (inactive)
8,OCc1ccc2c(c1)OCCO2,> 4 mM (inactive)
9,COc1ccccc1-c1nc(-c2ccc(C)nc2OC)no1,> 4 mM (inactive)
10,Cc1occc1C(=O)NC1CCN(C)CC1,> 4 mM (inactive)
11,CN1CCC(NC(=O)c2cccnc2)CC1,> 4 mM (inactive)
12,CN1CCN(C(=S)c2ccc(N(C)C)cc2)CC1,> 4 mM (inactive)
13,CCC(C)OC1CCS(=O)(=O)C1 (stereo unspecified),> 4 mM (inactive)
14,CC(C)=CCCC1(C)C=Cc2c(O)c3c(c(CC=C(C)C)c2O1)OC12C(=CC4CC1C(C)(C)OC2(C/C=C(/C)C(=O)O)C4=O)C3=O (stereo unspecified),> 4 mM (inactive)
15,C=CC(C1=CC(=O)C(OC)=CC1=O)c1ccccc1 (stereo unspecified),> 4 mM (inactive)
16,O=C(N1CCOCC1)N1CCN(c2ccccn2)CC1,> 4 mM (inactive)
17,O=C(O)C1CSC(c2cc3ccccc3nc2Cl)N1 (stereo unspecified),> 4 mM (inactive)
18,NS(=O)(=O)c1ccc(NC(=O)C2CC2)cc1,> 4 mM (inactive)
19,Nc1cc(-c2ccco2)[nH]n1,> 4 mM (inactive)
20,O=C(O)CC1Sc2ccccc2NC1=O (stereo unspecified),> 4 mM (inactive)
21,NC(=O)CSc1nc2ccccc2c(=O)[nH]1,> 4 mM (inactive)
22,CSc1cccc(NC(=O)c2c(Cl)cnn2C)c1,> 4 mM (inactive)
23,C[C@H]1C(=O)CCC2[C@]3(C)CC[C@@]4(C)C5CC(C)(C)CC[C@]5(C)CC[C@]4(C)C3CC[C@@]21C (stereo partly specified),> 4 mM (inactive)
24,CCC(=O)NC(=S)Nc1ccc(N2CCOCC2)cc1,> 4 mM (inactive)
25,COc1c(-c2coc3cc4c(cc3c2=O)CC(O)C(C)(C)O4)ccc2c1C=CC(C)(C)O2 (stereo unspecified),> 4 mM (inactive)

row,SMILES,Kd
1,Cc1n[nH]c(=S)n1-c1ccc(C(=O)O)cc1,> 4 mM (inactive)
2,CC(C1OC(C)(C)C(O)C1O)[C@@H]1CC[C@]2(C)C3=CCC4C(C)(C)C(=O)CC[C@]4(C)C3CC[C@@]12C (stereo partly specified),> 4 mM (inactive)
3,CC(=O)CC1(O)C(=O)Nc2ccc(Br)cc21 (stereo unspecified),> 4 mM (inactive)
4,O=C(NCCCSc1ncccn1)Nc1ncccn1,> 4 mM (inactive)
5,O=C(O)c1csc(-c2cccnc2)n1,> 4 mM (inactive)
6,CSc1ccc(C2NC(=O)CCC2[N+](=O)[O-])cc1 (stereo unspecified),> 4 mM (inactive)
7,COC(=O)c1cnccc1C(F)(F)F,> 4 mM (inactive)
8,c1ccc(-c2n[nH]c(-c3ccccn3)n2)nc1,> 4 mM (inactive)
9,CC(=O)Nc1nnc(-c2ccccc2S(C)(=O)=O)o1,> 4 mM (inactive)
10,CCn1c(-c2ccccc2)n[nH]c1=S,> 4 mM (inactive)
11,NC(=O)NC1C=CS(=O)(=O)C1 (stereo unspecified),> 4 mM (inactive)
12,Nc1nc(SCc2ccc3c(c2)OCCO3)n[nH]1,> 4 mM (inactive)
13,Cc1ccc(NC(=O)CC2NCCNC2=O)c(C)c1 (stereo unspecified),> 4 mM (inactive)
14,O=C1C2CC=C(Cl)CC2C(=O)N1c1ccccc1O (stereo unspecified),> 4 mM (inactive)
15,O=CN1CCN(C(=O)c2ccccc2F)CC1,> 4 mM (inactive)
16,CCOC(=O)CC1Sc2ccccc2NC1=O (stereo unspecified),> 4 mM (inactive)
17,NS(=O)(=O)c1ccc2c3c(cccc13)C(=O)N2,> 4 mM (inactive)
18,COc1ccc(N/C(N)=N\c2nc(C)cc(C)n2)cc1,> 4 mM (inactive)
19,CN(C)C(=O)CSc1nc2ccccc2c(=O)[nH]1,> 4 mM (inactive)
20,NCc1nc2ccccc2s1,> 4 mM (inactive)
21,Cc1c(C(=O)NCc2ccccn2)oc2ccccc12,> 4 mM (inactive)
22,NC(=O)CNC(=O)c1ccccc1,> 4 mM (inactive)
23,Cc1cc(C(=O)Nc2nnc(C(F)(F)F)s2)no1,> 4 mM (inactive)
24,COC(=O)CCC(C)C1CCC2C3CCC4C[C@H](O)CC[C@]4(C)C3C[C@H](O)[C@]12C (stereo partly specified),> 4 mM (inactive)
25,O=C(O)C1C(=O)NCC1c1ccccc1 (stereo unspecified),> 4 mM (inactive)

row,SMILES,Kd
1,CC(=O)c1ccc(NC(=O)c2ocnc2C)cc1,> 4 mM (inactive)
2,O=C(Nn1cnnc1)c1csc2c1CCCC2,> 4 mM (inactive)
3,Cc1cccc(-n2c(N)cc(=O)[nH]c2=S)c1C,> 4 mM (inactive)
4,COc1ccc(S(=O)(=O)N2CCC(C(N)=O)CC2)cc1,> 4 mM (inactive)
5,C[C@H](CCC(=O)O)[C@H]1CCC2C3C(CC[C@@]21C)[C@@]1(C)CC[C@@H](O)C[C@H]1C[C@@H]3O (stereo partly specified),> 4 mM (inactive)
6,CN1CCN(C(=O)C2CCCNC2)CC1 (stereo unspecified),> 4 mM (inactive)
7,O=C1CC(=O)N(c2cccc(Cl)c2)N1,> 4 mM (inactive)
8,COc1ccc2cc1Oc1ccc(cc1)C[C@H]1c3c(cc4c(c3Oc3cc5c(cc3OC)CCN(C)[C@@H]5C2)OCO4)CCN1C,> 4 mM (inactive)
9,NC(=O)C1CCN(Cc2ccccc2)CC1,> 4 mM (inactive)
10,O=C(CC1CCCCC1)N1CCN(c2ccccn2)CC1,> 4 mM (inactive)
11,Cn1nnc2c(Cl)ncnc21,> 4 mM (inactive)
12,Cc1[nH]c2ccccc2c1Cc1n[nH]c(=S)n1C,> 4 mM (inactive)
13,Nc1cc(F)nc(F)n1,> 4 mM (inactive)
14,OC(CCl)c1ccc(-n2cncn2)cc1 (stereo unspecified),> 4 mM (inactive)
15,NCCCCN,> 4 mM (inactive)
16,O=C(Nc1ccccc1[N+](=O)[O-])c1ccc(=O)[nH]n1,> 4 mM (inactive)
17,O=c1ccc2nc3ccccc3c(=O)n2[nH]1,> 4 mM (inactive)
18,CC(=O)c1c(C)n([O-])c2ccccc2[n+]1=O,> 4 mM (inactive)
19,CN(C)C(=O)Oc1cccc(-c2nnco2)c1,> 4 mM (inactive)
20,CC(C)(C)c1cc(CN)c(C(=O)O)o1,> 4 mM (inactive)
21,Cc1cc(C)c2nncn2n1,> 4 mM (inactive)

# Reference: PubChem BioAssay AID608 (Sanford-Burnham Center for Chemical Genomics, 2007)
